According to patent US20090181898A1, “ABUSE-RESISTANT A[…]” (SHIRE LLC, priority 2002, published 2009):
Where “and” joins values, the source holds several entries; their conditions need not be identical. Equal values may be shown once.

Experiments:
[1] = Intranasal bioavailability of L-lysine-d-amphetamine vs amphetamine (ELISA); settings: rat, 3 mg/kg
[2] = Oral pharmacokinetics of L-lysine-d-amphetamine diHCl compared to d-amphetamine sulfate (ELISA); settings: rat; for Plasma concentrations of d-amphetamine, individual animals: 3 mg/kg d-amphetamine base, Rat #1-#4; for Mean plasma d-amphetamine concentration: n=4

## d-amphetamine
[1]; hydrochloride salt study
  AUC (0-[…]) of d-amphetamine: 727 ng·h/mL
  Cmax of d-amphetamine: 1,377 ng/ml
[1]; mesylate salt study
  AUC (0-1.0 h) of d-amphetamine: 573 ng·h/mL
  Cmax of d-amphetamine: 1114 ng/mL
[2]; 3 mg/kg
  AUC (0-8 h) of d-amphetamine: 341 ± 35 ng·h/mL
  Cmax of d-amphetamine: 111 ± 27 ng/mL
  Mean Peak of d-amphetamine: 129 ng/mL
  Mean Peak, Percent Amphetamine: 100%
[2]; 0.5 h
  Plasma concentrations of d-amphetamine, individual animals: 144 ng/mL and 157 ng/mL and 101 ng/mL and 115 ng/mL
[2]; 1 h
  Plasma concentrations of d-amphetamine, individual animals: 152 ng/ml and 78 ng/ml (2×) and 115 ng/ml
[2]; 3 h
  Plasma concentrations of d-amphetamine, individual animals: 34 ng/mL and 45 ng/mL and 72 ng/mL and 38 ng/mL
[2]; 5 h
  Plasma concentrations of d-amphetamine, individual animals: 20 ng/mL and 14 ng/mL and 12 ng/mL and 15 ng/mL
[2]; 8 h
  Plasma concentrations of d-amphetamine, individual animals: 3 ng/ml (2×) and 2 ng/ml (2×)
[2]; 3 mg/kg, 0.5 h
  Mean plasma d-amphetamine concentration: 129 ng/mL
[2]; 3 mg/kg, 1 h
  Mean plasma d-amphetamine concentration: 106 ng/mL
[2]; 3 mg/kg, 3 h
  Mean plasma d-amphetamine concentration: 47 ng/mL
[2]; 3 mg/kg, 5 h
  Mean plasma d-amphetamine concentration: 15 ng/mL
[2]; 3 mg/kg, 8 h
  Mean plasma d-amphetamine concentration: 2 ng/mL
